Reference: patent US12187663B2, “Thyromimetics with a biphenylmethane scaffold and their use” (INTERNATIONAL SOCIETY FOR DRUG DEVELOPMENT S.R.L., priority 2019, dated 2025)

Key:
TR-alpha = biological target: T1, TR-alpha (Homo sapiens, UniProt P10827); assay: LanthaScreen TR-FRET nuclear receptor coregulator assay, TR-alpha; assay type: biochemical; details: for EC50: Nuclear Receptor TR-alpha, coregulator peptide recruitment; for interaction with TRalpha receptor: conclusion from TR-FRET data
T1 construct: In this assay Nuclear Receptor-LBD is added to ligand test compounds; purchased Invitrogen Corporation, Life Technologies
T1 sequence (P10827 163-410 isoform P10827-2 limits assumed, other chains not shown): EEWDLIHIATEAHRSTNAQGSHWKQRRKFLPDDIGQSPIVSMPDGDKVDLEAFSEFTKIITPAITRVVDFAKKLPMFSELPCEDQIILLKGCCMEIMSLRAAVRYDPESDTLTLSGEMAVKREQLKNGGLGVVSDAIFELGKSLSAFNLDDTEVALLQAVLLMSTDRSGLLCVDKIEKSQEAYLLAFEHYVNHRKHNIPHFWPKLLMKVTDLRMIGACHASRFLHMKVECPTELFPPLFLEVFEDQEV
Method: (§1) The compounds of Formula (I,II) were tested in the biological test named LANTHASCREEN TR-FRET NUCLEAR RECEPTOR COREGULATOR ASSAY (Invitrogen Corporation, Life Technologies).
(§2) In this assay Nuclear Receptor-LBD is added to ligand test compounds followed by addition of a mixture of the fluorescein-coregulator peptide and terbium anti-GST antibody.

TR-beta = biological target: T2, TR-beta (Homo sapiens, UniProt P10828); assay: LanthaScreen TR-FRET nuclear receptor coregulator assay, TR-beta; assay type: biochemical; details: coregulator peptide recruitment
T2 construct: In this assay Nuclear Receptor-LBD is added to ligand test compounds; purchased Invitrogen Corporation, Life Technologies
T2 sequence (P10828 217-461 limits assumed): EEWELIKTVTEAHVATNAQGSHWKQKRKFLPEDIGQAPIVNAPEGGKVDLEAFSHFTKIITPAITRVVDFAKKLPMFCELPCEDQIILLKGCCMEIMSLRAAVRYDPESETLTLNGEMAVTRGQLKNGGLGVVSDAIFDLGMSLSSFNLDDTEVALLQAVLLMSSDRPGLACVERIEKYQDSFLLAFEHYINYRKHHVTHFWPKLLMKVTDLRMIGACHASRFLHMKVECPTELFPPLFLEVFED
Method: as §1, §2

[1] = Serum levels of cholesterol, glucose, transaminases, amylase, lipase, bilirubin and triglycerides; assay type: in vivo, F-344 rats; details: rats, intragastric administration, 3 days
HepG2 cells [2] = assay: Glycerol release (lipolysis); assay type: cell-based, Human; details: 24 hours treatment, 1 and 10 μM
Method: Samples of the media collected from HepG2 cells used to test lipid accumulation by Oil Red O staining (as detailed above), were assayed for glycerol levels using the Glycerol Assay Kit (Cell Based-ab133130-Abcam).

HepG2 cells [3] = assay: Cell viability MTT assay; assay type: cell-based; details: 1-10 μM, 24 h
Method: HepG2 cells were seeded in a 96-well plate (Corning, USA) at a density of 1.0×10^4 cells/well with DMEM (200 μl/well), and then incubated for 24 h according to routine procedure. After being treated with test compounds (1-10 μM) and incubated for 24 h (8 wells for each sample), 20 μL/well MTT (5 g/L) was added to each well. The medium was then removed after 4 h incubation and 100 μL/well sodium dodecyl sulfate (SDS)-HCl solution was added to dissolve the reduced formazan product after incubation for 16 h at 37° C. Finally, the plate was read at 570 nm, using a micro-plate reader (Bio-Rad 680, USA).

pancreatic acinar cells = assay: Pancreatic acinar cell proliferation (BrdU labeling index); assay type: in vivo, rats; details: one week; T3 4 mg/kg diet; GC1 50 μg/kg gavage once daily; TG68 and IS25 50 μg/kg in drinking water
Method: FIG. 9. […] BrdU (1 mg/ml) in drinking water was given all throughout the experimental time. […] LI was expressed as number of BrdU-positive acinar cell nuclei/100 nuclei. At least 2000 acinar cells per pancreas were scored. Results are expressed as means±SE of 3 to 5 rats per group. (one way ANOVA). ***Statistically significant from control; P<0.001.
BrdU (1 mg/ml) in drinking water was given all throughout the experimental time. […] LI was expressed as number of BrdU-positive acinar cell nuclei/100 nuclei. At least 2000 acinar cells per pancreas were scored.

[4] = Serum levels of cholesterol, glucose, transaminases, amylase, lipase, bilirubin and triglycerides; assay type: in vivo, F-344 rats; details: rats, 3 days treatment
Method: Five-week-old male F-344 rats purchased from Charles River (Milano, Italy) were maintained on a standard laboratory diet (Ditta Mucedola, Milano, Italy). The animals were given food and water ad libitum with a 12-h light/dark daily cycle and were acclimated for 1 week before the start of the experiment. All procedures were performed in accordance with the Guidelines for the Care and Use of Laboratory Animals and were approved by the Italian Ministry of Health. […] A control group received the vehicle (DMSO 5% in corn oil). Additional two groups received daily injections of either IS25 or TG68 at the dose of 75 μg/100 g b.wt. intraperitoneally for 3 days. For the measurement of hepatocyte proliferation, animals received bromodeoxyuridine (BrdU; 1 g/1 L) in drinking water during the 3-day treatment period (FIGS. 7A and B).
Lack of severe liver toxicity was confirmed by measuring the levels of serum transaminases and bilirubin (FIG. 8) that were within the range of normal values for F-344 rats of the same age (Charles River datasheet). Pancreas damage was also evaluated by measuring the levels of amylase and lipase.

Compound	EC50 (TR-alpha) [nM]	interaction with TRalpha receptor (TR-alpha)	EC50 (TR-beta) [nM]	serum TGs level [1]	glycerol release / lipolysis (HepG2 cells [2])	cell viability (cell death with respect to control) (HepG2 cells [3])	pancreatic acinar cell proliferation (BrdU-positive acinar cells) (pancreatic acinar cells)	serum amylase (pancreas damage) [4]	serum cholesterol [4]	serum glucose [4]	serum lipase (pancreas damage) [4]
Cc1cc(OCC(=O)O)cc(C)c1Cc1ccc(N)c(C(C)C)c1 [IS25, 2-(4-(4-amino-3-isopropylbenzyl)-3,5-dimethylphenoxy)acetic acid]	> 1000	do not interact	458	significantly reduced	induce lipolysis	did not significantly (p<0.05) cause cell death	mitogenic only for the liver and not for other tissues	No significant changes	no change	no change	No significant changes
CC(=O)Nc1ccc(Cc2c(C)cc(OCC(=O)O)cc2C)cc1C(C)C [TG68, 2-(4-(4-acetamido-3-isopropylbenzyl)-3,5-dimethylphenoxy)acetic acid]	> 1000	do not interact	> 1000	significantly reduced	induce lipolysis	did not significantly (p<0.05) cause cell death	mitogenic only for the liver and not for other tissues	No significant changes	no change	no change	No significant changes
